Test results as given in US6992079B2, “Substituted 11-phenyl-dibenzazepine compounds useful for the treatment or prevention of diseases characterized by abnormal cell proliferation” (President Fellows of Harvard College, priority 1997, dated 2006).

Experiments:
K-562 = assay: In-Vitro Testing SRB panel: Leukemia; format: cell-based
SR = assay: In-Vitro Testing SRB panel: Leukemia; format: cell-based
OVCAR-8 = assay: In-Vitro Testing SRB panel: Ovarian Cancer; format: cell-based; settings: OVCAR-8
T-47D = assay: In-Vitro Testing SRB panel: Breast Cancer; format: cell-based
[1] = test system: H209 small lung cell carcinoma; assay: Mouse xenograft tumor growth; format: in vivo, SCID mice
UACC-62 = assay: In-Vitro Testing SRB panel: Melanoma; format: cell-based; settings: UACC-62
786-0 = assay: In-Vitro Testing SRB panel: Renal Cancer; format: cell-based; settings: 786-0
SW-620 = assay: In-Vitro Testing SRB panel: Colon Cancer; format: cell-based; settings: SW-620
[2] = test system: SU.86.86 pancreatic adenocarcinoma; assay: Mouse xenograft tumor growth; format: in vivo, nude mice; settings: SU.86.86 pancreatic adenocarcinoma mouse xenograft
KM12 = assay: In-Vitro Testing SRB panel: Colon Cancer; format: cell-based; settings: KM12
[3] = Homo sapiens, read-out: LC50 (the source's name)

Question: Which GI50 (K-562; Homo sapiens, K562) does the source give for `COc1cccc2c1C(c1ccccc1Cl)c1cc(Cl)ccc1N(C(=O)c1ccc([N+](=O)[O-])cc1)C2` (stereo not drawn) [Compound 31] here?
Answer: Its GI50 is 0.506 µM.

Question: What about the CC50 (K-562; Homo sapiens, K562, K-562, read-out: LC50 (the source's name)) of the same molecule?
Answer: The CC50 was over 100 µM.

Question: And the TGI (K-562; K-562)?
Answer: Its TGI is over 1.00E−04 Molar.

Question: What about the “Percent Growth” value (K-562; K-562, log10 conc -4 Molar) of the same molecule?
Answer: The value was 15%.

Question: What about the “Percent Growth” value (K-562; K-562, log10 conc -5 Molar) of the same molecule?
Answer: Its value is 24%.

Question: And the “Percent Growth” value (K-562; K-562, log10 conc -6 Molar)?
Answer: The value was 39%.

Question: What about the “Percent Growth” value (K-562; K-562, log10 conc -7 Molar) of the same molecule?
Answer: Its value is 77%.

Question: And the “Percent Growth” value (K-562; K-562, log10 conc -8 Molar)?
Answer: Its value is 93%.

Question: And the TGI (SR)?
Answer: Its TGI is over 1.00E−04 Molar.

Question: And the GI50 (SR; Homo sapiens)?
Answer: The GI50 was 0.128 µM.

Question: What about the CC50 (SR; [3]) of the same molecule?
Answer: Its CC50 is over 100 µM.

Question: What about the “Percent Growth” value (SR; log10 conc -4 Molar) of the same molecule?
Answer: Its value is 4%.

Question: And the “Percent Growth” value (SR; log10 conc -5 Molar)?
Answer: The value was 7%.

Question: And the “Percent Growth” value (SR; log10 conc -6 Molar)?
Answer: The value was 13%.

Question: And the “Percent Growth” value (SR; log10 conc -7 Molar)?
Answer: Its value is 54%.

Question: And the “Percent Growth” value (SR; log10 conc -8 Molar)?
Answer: The value was 94%.

Question: What about the GI50 (OVCAR-8; Homo sapiens) of the same molecule?
Answer: The GI50 was 5.3 µM.

Question: What about the CC50 (OVCAR-8; [3]) of the same molecule?
Answer: The CC50 was over 100 µM.

Question: And the TGI (OVCAR-8)?
Answer: Its TGI is over 1.00E−04 Molar.

Question: And the “Percent Growth” value (OVCAR-8; log10 conc -4 Molar)?
Answer: The value was 29%.

Question: And the “Percent Growth” value (OVCAR-8; log10 conc -5 Molar)?
Answer: The value was 38%.

Question: And the “Percent Growth” value (OVCAR-8; log10 conc -6 Molar)?
Answer: Its value is 82%.

Question: What about the “Percent Growth” value (OVCAR-8; log10 conc -7 Molar) of the same molecule?
Answer: The value was 94%.

Question: What about the “Percent Growth” value (OVCAR-8; log10 conc -8 Molar) of the same molecule?
Answer: Its value is 99%.

Question: What about the GI50 (T-47D; Homo sapiens, T47D) of the same molecule?
Answer: Its GI50 is 2.97 µM.

Question: And the CC50 (T-47D; Homo sapiens, T47D, T-47D, read-out: LC50 (the source's name))?
Answer: The CC50 was over 100 µM.

Question: And the TGI (T-47D; T-47D)?
Answer: The TGI was over 1.00E−04 Molar.

Question: What about the “Percent Growth” value (T-47D; T-47D, log10 conc -4 Molar) of the same molecule?
Answer: The value was 27%.

Question: And the “Percent Growth” value (T-47D; T-47D, log10 conc -5 Molar)?
Answer: The value was 34%.

Question: What about the “Percent Growth” value (T-47D; T-47D, log10 conc -6 Molar) of the same molecule?
Answer: The value was 65%.

Question: What about the “Percent Growth” value (T-47D; T-47D, log10 conc -7 Molar) of the same molecule?
Answer: The value was 90%.

Question: What about the “Percent Growth” value (T-47D; T-47D, log10 conc -8 Molar) of the same molecule?
Answer: Its value is 92%.

Question: And the tumor growth [1]?
Answer: The tumor growth was “showed inhibition of tumor growth”.

Question: And the GI50 (UACC-62; Homo sapiens)?
Answer: The GI50 was 0.43 µM.

Question: And the CC50 (UACC-62; [3])?
Answer: Its CC50 is over 100 µM.

Question: What about the TGI (UACC-62) of the same molecule?
Answer: Its TGI is over 1.00E−04 Molar.

Question: What about the “Percent Growth” value (UACC-62; log10 conc -4 Molar) of the same molecule?
Answer: The value was 14%.

Question: And the “Percent Growth” value (UACC-62; log10 conc -5 Molar)?
Answer: Its value is 32%.

Question: And the “Percent Growth” value (UACC-62; log10 conc -6 Molar)?
Answer: The value was 36%.

Question: And the “Percent Growth” value (UACC-62; log10 conc -7 Molar)?
Answer: The value was 74%.

Question: What about the “Percent Growth” value (UACC-62; log10 conc -8 Molar) of the same molecule?
Answer: Its value is 90%.

Question: What about the TGI (786-0) of the same molecule?
Answer: The TGI was over 1.00E−04 Molar.

Question: And the “Percent Growth” value (786-0; log10 conc -4 Molar)?
Answer: Its value is 14%.

Question: What about the “Percent Growth” value (786-0; log10 conc -5 Molar) of the same molecule?
Answer: The value was 26%.

Question: What about the “Percent Growth” value (786-0; log10 conc -6 Molar) of the same molecule?
Answer: Its value is 54%.

Question: What about the “Percent Growth” value (786-0; log10 conc -7 Molar) of the same molecule?
Answer: Its value is 91%.

Question: And the “Percent Growth” value (786-0; log10 conc -8 Molar)?
Answer: The value was 95%.

Question: And the GI50 (786-0; Homo sapiens)?
Answer: Its GI50 is 1.35 µM.

Question: What about the CC50 (786-0; [3]) of the same molecule?
Answer: The CC50 was over 100 µM.

Question: And the GI50 (SW-620; Homo sapiens)?
Answer: The GI50 was 2 µM.

Question: And the CC50 (SW-620; [3])?
Answer: Its CC50 is over 100 µM.

Question: What about the TGI (SW-620) of the same molecule?
Answer: Its TGI is over 1.00E−04 Molar.

Question: What about the “Percent Growth” value (SW-620; log10 conc -4 Molar) of the same molecule?
Answer: Its value is 27%.

Question: And the “Percent Growth” value (SW-620; log10 conc -5 Molar)?
Answer: Its value is 34%.

Question: What about the “Percent Growth” value (SW-620; log10 conc -6 Molar) of the same molecule?
Answer: Its value is 57%.

Question: And the “Percent Growth” value (SW-620; log10 conc -7 Molar)?
Answer: The value was 94%.

Question: What about the “Percent Growth” value (SW-620; log10 conc -8 Molar) of the same molecule?
Answer: Its value is 105%.

Question: And the tumor growth [2]?
Answer: The tumor growth was “showed inhibition of tumor growth”.

Question: What about the GI50 (KM12; Homo sapiens) of the same molecule?
Answer: The GI50 was 0.519 µM.

Question: What about the CC50 (KM12; [3]) of the same molecule?
Answer: The CC50 was over 100 µM.

Question: And the TGI (KM12)?
Answer: Its TGI is over 1.00E−04 Molar.

Question: What about the “Percent Growth” value (KM12; log10 conc -4 Molar) of the same molecule?
Answer: The value was 20%.

Question: And the “Percent Growth” value (KM12; log10 conc -5 Molar)?
Answer: The value was 32%.

Question: And the “Percent Growth” value (KM12; log10 conc -6 Molar)?
Answer: Its value is 38%.

Question: And the “Percent Growth” value (KM12; log10 conc -7 Molar)?
Answer: The value was 80%.

Question: And the “Percent Growth” value (KM12; log10 conc -8 Molar)?
Answer: Its value is 99%.
